Test results as given in the supplement of paper PMC9663587.

Legend:
[1] = system: PDX1258; experiment: area over the GR curve, 72 h; higher = more effect;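 also: Dye Drop or Deep Dye Drop imaging of viable cells in 384-well plates (Hoechst nuclei, LIVE/DEAD dye), nine half-log doses, GR normalized to DMSO controls and time-zero plates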
[2] = system: MCF10A; experiment: area over the GR curve, 72 h; higher = more effect;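 also: Dye Drop or Deep Dye Drop imaging of viable cells in 384-well plates (Hoechst nuclei, LIVE/DEAD dye), nine half-log doses, GR normalized to DMSO controls and time-zero plates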
[3] = system: CAL120; experiment: area over the GR curve, 72 h; higher = more effect;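 also: Dye Drop or Deep Dye Drop imaging of viable cells in 384-well plates (Hoechst nuclei, LIVE/DEAD dye), nine half-log doses, GR normalized to DMSO controls and time-zero plates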
[4] = system: CAL851; experiment: GRmax, 72 h; higher = less effect;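 also: breast cell lines in 384-well plates, nine doses across a 10^4 range, Dye Drop imaging of viable cells vs DMSO and time-zero plates, GR 0 means no net growth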
[5] = system: UACC812; experiment: GRmax, 72 h; higher = less effect;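 also: breast cell lines in 384-well plates, nine doses across a 10^4 range, Dye Drop imaging of viable cells vs DMSO and time-zero plates, GR 0 means no net growth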
[6] = system: CAL51; experiment: GRmax, 72 h; higher = less effect;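 also: breast cell lines in 384-well plates, nine doses across a 10^4 range, Dye Drop imaging of viable cells vs DMSO and time-zero plates, GR 0 means no net growth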
[7] = system: BT474; experiment: GRmax, 72 h; higher = less effect;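 also: breast cell lines in 384-well plates, nine doses across a 10^4 range, Dye Drop imaging of viable cells vs DMSO and time-zero plates, GR 0 means no net growth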
[8] = system: CAMA1; experiment: GRmax, 72 h; higher = less effect
[9] = system: SUM44PE; experiment: GRmax, 72 h; higher = less effect
[10] = system: UACC893; experiment: GRmax, 72 h; higher = less effect
[11] = system: HCC70; experiment: GRmax, 72 h; higher = less effect
[12] = system: HCC1143; experiment: GRmax, 72 h; higher = less effect

| Compound | area over the GR curve [1] | area over the GR curve [2] | area over the GR curve [3] | GRmax, 72 h [4] | GRmax, 72 h [5] | GRmax, 72 h [6] | GRmax, 72 h [7] | GRmax, 72 h [8] | GRmax, 72 h [9] | GRmax, 72 h [10] | GRmax, 72 h [11] | GRmax, 72 h [12] |
| --- | --- | --- | --- | --- | --- | --- | --- | --- | --- | --- | --- | --- |
| COc1ccc2c(c1)[C@]1(C[C@H]1c1ccc3c(/C=C/c4ccc(CN5C[C@@H](C)O[C@@H](C)C5)cc4)n[nH]c3c1)C(=O)N2 | 0.676 GR | 0.817 GR | 0.518 GR | -0.11 GR | -0.135 GR | 0.0084 GR | 0.18 GR | -0.0117 GR | -0.249 GR | 0.138 GR | -0.31 GR | 0.0518 GR |
| COc1cccc(OCCCN)c1-c1cc(Nc2cnc(C#N)cn2)n[nH]1 | 0.868 GR | 0.301 GR | 0.344 GR | 0.0306 GR | 0.528 GR | 0.0443 GR | 0.715 GR | 0.084 GR | -0.79 GR | 0.365 GR | -0.639 GR | -0.117 GR |
| CC(=O)Nc1cccc(-n2c(=O)n(C3CC3)c(=O)c3c(Nc4ccc(I)cc4F)n(C)c(=O)c(C)c32)c1 (max 1 µM) | 0.0351 GR | 0.527 GR | 0.294 GR | 0.234 GR | -0.119 GR | 0.706 GR | 1.36 GR | 0.553 GR | 0.56 GR | -0.0662 GR | -0.0393 GR | -0.0225 GR |
| CCc1cnn2c(NCc3ccc[n+]([O-])c3)cc(N3CCCC[C@H]3CCO)nc12 (max 1 µM) | 0.685 GR | 0.528 GR | 0.555 GR | -0.241 GR | -0.942 GR | -0.358 GR | -0.762 GR | -0.485 GR | -0.925 GR | -0.641 GR | -0.909 GR | -0.253 GR |
| CC(=O)c1c(C)c2cnc(Nc3ccc(N4CCNCC4)cn3)nc2n(C2CCCC2)c1=O (max 3.162 µM) | -0.0777 GR | 0.188 GR | 0.142 GR | 1.08 GR | -0.142 GR | 0.361 GR | 0.519 GR | 0.282 GR | 0.437 GR | 0.344 GR | 0.936 GR | 0.282 GR |
| CCc1cncnc1N1CCN(Cc2nc3ccc(C(F)(F)F)cc3[nH]2)CC1 (max 10 µM) | -0.0033 GR | 0.0475 GR | 0.0139 GR | 1.02 GR | -0.22 GR | 0.734 GR | 0.508 GR | 0.655 GR | 0.292 GR | 0.351 GR | 0.935 GR | 0.739 GR |
| CCCCOc1c(C(=O)c2c(F)cc(C)cc2F)c[nH]c2nncc1-2 (max 10 µM) | 1.05 GR | 0.39 GR | 0.346 GR | -0.012 GR | -0.394 GR | 0.28 GR | 0.503 GR | -0.0904 GR | -0.234 GR | 0.117 GR | -0.164 GR | -0.0529 GR |
| CCN1CCN(Cc2ccc(Nc3ncc(F)c(-c4cc(F)c5nc(C)n(C(C)C)c5c4)n3)nc2)CC1 (max 10 µM) | 0.329 GR | 0.381 GR | 0.478 GR | -0.224 GR | -0.603 GR | -0.464 GR | 0.301 GR | 0.222 GR | -0.763 GR | -0.22 GR | -0.826 GR | -0.0787 GR |
| CNc1nc(-c2ccc3c(N)n[nH]c3c2)cc(N2C[C@@H](C(=O)NC3CCCCC3)CC[C@H]2C)n1 (max 10 µM) | 0.011 GR | -0.0162 GR | 0.0896 GR | 0.506 GR | 0.166 GR | 0.794 GR | 0.151 GR | 0.716 GR | 0.166 GR | 0.144 GR | 0.15 GR | 0.742 GR |
| CO[C@@H](C)Cn1c(=O)n(C)c2cnc3ccc(-c4cncc(C(C)(C)O)c4)cc3c21 (max 10 µM) | 0.557 GR | 0.447 GR | 0.696 GR | -0.0445 GR | -0.663 GR | -0.159 GR | -0.844 GR | -0.458 GR | -0.855 GR | -0.84 GR | -0.755 GR | -0.203 GR |
| Cc1nn(C)c(COc2ccc(N3CCN(S(=O)(=O)N(C)C)CC3)cc2)c1-c1cccc2c(CCCOc3cccc4ccccc34)c(C(=O)O)n(CCN3CCOCC3)c12 (max 10 µM) | -0.0034 GR | 0.0018 GR | 0.0152 GR | 1.01 GR | 0.991 GR | 0.992 GR | 0.69 GR | 0.876 GR | -0.463 GR | 0.763 GR | 0.938 GR | 0.672 GR |
| CN(C)CC[C@H](CSc1ccccc1)Nc1ccc(S(=O)(=O)NC(=O)c2ccc(N3CCN(Cc4ccccc4-c4ccc(Cl)cc4)CC3)cc2)cc1[N+](=O)[O-] [ABT-737] (max 10 µM) | -0.0015 GR | 0.0104 GR | 0.2 GR | 0.934 GR | 0.329 GR | 0.876 GR | 0.181 GR | 0.864 GR | -0.0028 GR | 0.49 GR | -0.0638 GR | 0.376 GR |
| C=CCn1c(=O)c2cnc(Nc3ccc(N4CCN(C)CC4)cc3)nc2n1-c1cccc(C(C)(C)O)n1 [AZD1775] (max 10 µM) | 0.73 GR | 0.0857 GR | 0.483 GR | -0.55 GR | -0.598 GR | -0.188 GR | -0.398 GR | -0.206 GR | -0.813 GR | -0.42 GR | -0.75 GR | -0.458 GR |
| CNC(=O)c1cccc(-c2ccc3c(N4CCOC[C@@H]4C)nc(N4CCOC[C@@H]4C)nc3n2)c1 [AZD2014] (max 10 µM) | 0.41 GR | 0.4 GR | 0.464 GR | 0.114 GR | -0.585 GR | 0.201 GR | -0.421 GR | -0.0933 GR | -0.315 GR | -0.164 GR | 0.0453 GR | 0.182 GR |
| NC1(C(=O)N[C@@H](CCO)c2ccc(Cl)cc2)CCN(c2nc[nH]c3nccc2-3)CC1 [AZD5363] (max 10 µM) | 0.153 GR | 0.0283 GR | 0.0399 GR | 0.592 GR | 0.485 GR | 0.565 GR | 0.0474 GR | -0.124 GR | -0.152 GR | -0.798 GR | -0.292 GR | 0.769 GR |
